Tested on: HBsAg
Assay: HBsAg assay (chemiluminescence immunoassay of secreted HBsAg)
Assay type: cell-based, HBV
Conditions: Hepatitis B virus, HepG2.2.15, HBsAg secretion, HepG2.2.15 cells, CLIA of culture supernatant
Procedure: HepG2.2.15 cells (Acs et al. Proc Natl Acad Sci USA, 84, (1987), 4641-4), a constitutively HBV-expressing cell line were cultured in DMEM+Glutamax-I medium (Invitrogen, Carlsbad, Calif., USA), supplemented with 10% fetal bovine serum (Invitrogen) and G418 (Invitrogen) at a final concentration of 200 mg/L and maintained in 5% CO2 at 37° C.
HepG2.2.15 cells were seeded in duplicate into white, 96-well plates at 1.5×10^4 cells/well. The cells were treated with a three-fold serial dilution series of the compounds in DMSO. The final DMSO concentration in all wells was 1% and DMSO was used as no drug control.
The HBsAg chemiluminescence immunoassay (CLIA) kit (Autobio Diagnostics Co., Zhengzhou, China, Catalog number: CL0310-2) was used to measure the levels of secreted HBV antigens semi-quantitatively. For the detection 50 μL/well culture supernatant was used and HBsAg was quantified using HBsAg chemiluminescence immunoassay (CLIA) kit (Autobio Diagnostics Co., Zhengzhou, China, Catalog number: CL0310-2), 50 μL of the supernatant was transferred to the CLIA assay plate and 50 μL of enzyme conjugate reagent was added into each well. The plates were sealed and gently agitated for 1 hour at room temperature. The supernatant-enzyme-mixture was discarded and wells were washed 6 times with 300 μL of PBS.
The residual liquid was removed by plating the CLIA plate right side down on absorbent tissue paper. 25 μL of substrates A and B were added to each well. Luminance was measured using a luminometer (Mithras LB 940 Multimode Microplate Reader) after 10 minutes incubation. Dose-response curves were generated and the IC50 value was extrapolated by using the E-WorkBook Suite (ID Business Solutions Ltd., Guildford, UK). The IC50 was defined as the compound concentration (or conditioned media log dilution) at which HBsAg secretion was reduced by 50% compared to the no drug control.
The compounds according to formula I were tested for their capacity to inhibit HBsAg as described herein.

SMILES	IC50 [nM]
CC1c2cnc(-c3ccccn3)nc2CCN1c1cc(F)cc(N2CCC(O)C2)n1 (centres unmarked) [Example 59, 1-[4-fluoro-6-[5-methyl-2-(2-pyridyl)-7,8-dihydro-5H-pyrido[4,3-d]pyrimidin-6-yl]-2-pyridyl]pyrrolidin-3-ol]	26
CC1c2cnc(-c3ccccn3)nc2CCN1c1cc(N2CCC(O)C2)cc(F)n1 (centres unmarked) [Example 60, 1-[2-fluoro-6-[5-methyl-2-(2-pyridyl)-7,8-dihydro-5H-pyrido[4,3-d]pyrimidin-6-yl]-4-pyridyl]pyrrolidin-3-ol]	23
CC1c2cnc(-c3ccccn3)nc2CCN1c1cc(F)cc(N2CCC(C(N)=O)C2)n1 (centres unmarked) [Example 61, 1-[4-fluoro-6-[5-methyl-2-(2-pyridyl)-7,8-dihydro-5H-pyrido[4,3-d]pyrimidin-6-yl]-2-pyridyl]pyrrolidine-3-carboxamide]	22
CC1c2cnc(-c3ccccn3)nc2CCN1c1cc(N2CCC(C(N)=O)C2)cc(F)n1 (centres unmarked) [Example 62, 1-[2-fluoro-6-[5-methyl-2-(2-pyridyl)-7,8-dihydro-5H-pyrido[4,3-d]pyrimidin-6-yl]-4-pyridyl]pyrrolidine-3-carboxamide]	35
CC1c2cnc(-c3ncccn3)nc2CCN1c1cc(F)cc(N2CC(C(=O)NS(C)(=O)=O)C2)n1 (centres unmarked) [Example 63, 1-[4-fluoro-6-(5-methyl-2-pyrimidin-2-yl-7,8-dihydro-5H-pyrido[4,3-d]pyrimidin-6-yl)-2-pyridyl]-N-methylsulfonyl-azetidine-3-carboxamide]	5420
CC1c2cnc(-c3ncccn3)nc2CCN1c1cc(N2CC(C(=O)NS(C)(=O)=O)C2)cc(F)n1 (centres unmarked) [Example 64, 1-[2-fluoro-6-(5-methyl-2-pyrimidin-2-yl-7,8-dihydro-5H-pyrido[4,3-d]pyrimidin-6-yl)-4-pyridyl]-N-methylsulfonyl-azetidine-3-carboxamide]	2380
CC1c2cnc(-c3ncccn3)nc2CCN1c1cc(F)cc(N2CCC(C(=O)NS(C)(=O)=O)CC2)n1 (centres unmarked) [Example 65, 1-[4-fluoro-6-(5-methyl-2-pyrimidin-2-yl-7,8-dihydro-5H-pyrido[4,3-d]pyrimidin-6-yl)-2-pyridyl]-N-methylsulfonyl-piperidine-4-carboxamide]	4440
CC1c2cnc(-c3ncccn3)nc2CCN1c1cc(N2CCC(C(=O)NS(C)(=O)=O)CC2)cc(F)n1 (centres unmarked) [Example 66, 1-[2-fluoro-6-(5-methyl-2-pyrimidin-2-yl-7,8-dihydro-5H-pyrido[4,3-d]pyrimidin-6-yl)-4-pyridyl]-N-methylsulfonyl-piperidine-4-carboxamide]	1940
CC1c2cnc(-c3ccccn3)nc2CCN1c1cc(F)cc(N2CCC(C(=O)O)C2)n1 (centres unmarked) [Example 67, 1-[4-fluoro-6-[5-methyl-2-(2-pyridyl)-7,8-dihydro-5H-pyrido[4,3-d]pyrimidin-6-yl]-2-pyridyl]pyrrolidine-3-carboxylic acid]	532
CC1c2cnc(-c3ccccn3)nc2CCN1c1cc(N2CCC(C(=O)O)C2)cc(F)n1 (centres unmarked) [Example 68, 1-[2-fluoro-6-[5-methyl-2-(2-pyridyl)-7,8-dihydro-5H-pyrido[4,3-d]pyrimidin-6-yl]-4-pyridyl]pyrrolidine-3-carboxylic acid]	215
CC(=O)N1CCN(c2cc(F)nc(N3CCc4nc(-c5ccccn5)ncc4C3C)c2)CC1 (centres unmarked) [Example 69, 1-[4-[2-fluoro-6-[5-methyl-2-(2-pyridyl)-7,8-dihydro-5H-pyrido[4,3-d]pyrimidin-6-yl]-4-pyridyl]piperazin-1-yl]ethanone]	14
CC(=O)N1CCN(c2cc(F)cc(N3CCc4nc(-c5ccccn5)ncc4C3C)n2)CC1 (centres unmarked) [Example 70, 1-[4-[4-fluoro-6-[5-methyl-2-(2-pyridyl)-7,8-dihydro-5H-pyrido[4,3-d]pyrimidin-6-yl]-2-pyridyl]piperazin-1-yl]ethanone]	16
CC1c2cnc(-c3ccccn3)nc2CCN1c1cc(N2CCN(S(C)(=O)=O)CC2)cc(F)n1 (centres unmarked) [Example 71, 6-[6-fluoro-4-(4-methylsulfonylpiperazin-1-yl)-2-pyridyl]-5-methyl-2-(2-pyridyl)-7,8-dihydro-5H-pyrido[4,3-d]pyrimidine]	8
CC1c2cnc(-c3ccccn3)nc2CCN1c1cc(F)cc(N2CCN(S(C)(=O)=O)CC2)n1 (centres unmarked) [Example 72, 6-[4-fluoro-6-(4-methylsulfonylpiperazin-1-yl)-2-pyridyl]-5-methyl-2-(2-pyridyl)-7,8-dihydro-5H-pyrido[4,3-d]pyrimidine]	58
CC1c2cnc(-c3ccccn3)nc2CCN1c1cc(N2CCC(C(N)=O)CC2)cc(F)n1 (centres unmarked) [Example 73, 1-[2-fluoro-6-[5-methyl-2-(2-pyridyl)-7,8-dihydro-5H-pyrido[4,3-d]pyrimidin-6-yl]-4-pyridyl]piperidine-4-carboxamide]	10
CC1c2cnc(-c3ccccn3)nc2CCN1c1cc(F)cc(N2CCC(C(N)=O)CC2)n1 (centres unmarked) [Example 74, 1-[4-fluoro-6-[5-methyl-2-(2-pyridyl)-7,8-dihydro-5H-pyrido[4,3-d]pyrimidin-6-yl]-2-pyridyl]piperidine-4-carboxamide]	19
CC1c2cnc(-c3ccccn3)nc2CCN1c1cc(N2CCCC(C(N)=O)C2)cc(F)n1 (centres unmarked) [Example 75, 1-[2-fluoro-6-[5-methyl-2-(2-pyridyl)-7,8-dihydro-5H-pyrido[4,3-d]pyrimidin-6-yl]-4-pyridyl]piperidine-3-carboxamide]	39
CC1c2cnc(-c3ccccn3)nc2CCN1c1cc(F)cc(N2CCCC(C(N)=O)C2)n1 (centres unmarked) [Example 76, 1-[4-fluoro-6-[5-methyl-2-(2-pyridyl)-7,8-dihydro-5H-pyrido[4,3-d]pyrimidin-6-yl]-2-pyridyl]piperidine-3-carboxamide]	44
CC1c2cnc(-c3ncccn3)nc2CCN1c1cc(NS(=O)(=O)c2ccccc2)cc(F)n1 (centres unmarked) [Example 77, N-[2-fluoro-6-(5-methyl-2-pyrimidin-2-yl-7,8-dihydro-5H-pyrido[4,3-d]pyrimidin-6-yl)-4-pyridyl]benzenesulfonamide]	554
CC1c2cnc(-c3ncccn3)nc2CCN1c1cc(F)cc(NS(=O)(=O)c2ccccc2)n1 (centres unmarked) [Example 78, N-[4-fluoro-6-(5-methyl-2-pyrimidin-2-yl-7,8-dihydro-5H-pyrido[4,3-d]pyrimidin-6-yl)-2-pyridyl]benzenesulfonamide]	263
CC1c2cnc(-c3ccccn3)nc2CCN1c1cc(NCC(F)F)cc(F)n1 (centres unmarked) [Example 79]	71
CC1c2cnc(-c3ccccn3)nc2CCN1c1cc(F)cc(NCC(F)F)n1 (centres unmarked) [Example 80, N-(2,2-difluoroethyl)-4-fluoro-6-[5-methyl-2-(2-pyridyl)-7,8-dihydro-5H-pyrido[4,3-d]pyrimidin-6-yl]pyridin-2-amine]	124
CC1c2cnc(-c3ncccn3)nc2CCN1c1cc(F)cc(N2CC(C(N)=O)C2)n1 (centres unmarked) [Example 81, 1-[4-fluoro-6-(5-methyl-2-pyrimidin-2-yl-7,8-dihydro-5H-pyrido[4,3-d]pyrimidin-6-yl)-2-pyridyl]azetidine-3-carboxamide]	206
CC1c2cnc(-c3ncccn3)nc2CCN1c1cc(N2CC(C(N)=O)C2)cc(F)n1 (centres unmarked) [Example 82, 1-[2-fluoro-6-(5-methyl-2-pyrimidin-2-yl-7,8-dihydro-5H-pyrido[4,3-d]pyrimidin-6-yl)-4-pyridyl]azetidine-3-carboxamide]	149
COC1CCN(c2cc(F)nc(N3CCc4nc(-c5ccccn5)ncc4C3C)c2)C1 (centres unmarked) [Example 83, 6-[6-fluoro-4-(3-methoxypyrrolidin-1-yl)-2-pyridyl]-5-methyl-2-(2-pyridyl)-7,8-dihydro-5H-pyrido[4,3-d]pyrimidine]	20
COC1CCN(c2cc(F)cc(N3CCc4nc(-c5ccccn5)ncc4C3C)n2)C1 (centres unmarked) [Example 84, 6-[4-fluoro-6-(3-methoxypyrrolidin-1-yl)-2-pyridyl]-5-methyl-2-(2-pyridyl)-7,8-dihydro-5H-pyrido[4,3-d]pyrimidine]	23
CC1c2cnc(-c3ccccn3)nc2CCN1c1cc(F)cc(N2CCC(C(=O)NS(C)(=O)=O)C2)n1 (centres unmarked) [Example 85, 1-[4-fluoro-6-[5-methyl-2-(2-pyridyl)-7,8-dihydro-5H-pyrido[4,3-d]pyrimidin-6-yl]-2-pyridyl]-N-methylsulfonyl-pyrrolidine-3-carboxamide]	264
CC1c2cnc(-c3ccccn3)nc2CCN1c1cc(N2CCC(C(=O)NS(C)(=O)=O)C2)cc(F)n1 (centres unmarked) [Example 86, 1-[2-fluoro-6-[5-methyl-2-(2-pyridyl)-7,8-dihydro-5H-pyrido[4,3-d]pyrimidin-6-yl]-4-pyridyl]-N-methylsulfonyl-pyrrolidine-3-carboxamide]	1240
COCCS(=O)(=O)N1CCN(c2cc(F)nc(N3CCc4nc(-c5ncccn5)ncc4C3C)c2)CC1 (centres unmarked) [Example 87, 6-[6-fluoro-4-[4-(2-methoxyethylsulfonyl)piperazin-1-yl]-2-pyridyl]-5-methyl-2-pyrimidin-2-yl-7,8-dihydro-5H-pyrido[4,3-d]pyrimidine]	5
